Tests used:
Toledo cells = assay: Toledo cell proliferation inhibition assay; type: cell-based; settings: Homo sapiens, Toledo, 144 h; six-day assay, CellTiter-Glo
Procedure: • A. Purpose: to determine the effects of compounds on Toledo cells through a six-day cell proliferation assay. • B. Reagents and materials: • 1. Cell culture medium: RPMI 1640+10% FBS • 2. 384-well cell culture plate (Corning, item #3764) • 3. 0.4% Taipan Blue Staining Solution (Thermo Fisher, item #T10282) • 4. cell counting plate (Thermo Fisher, item #C10228) • 5. 50 ml reagent reservoir (Corning, item #4870) • 6. 50 ml conical sterile polypropylene centrifuge tube (Thermo Fisher, item #339653) • 7. Automatic cell counter (Thermo Fisher, item #AMQAX1000) • 8. CellTiter-Glo Luminescent Cell Viability Detection Reagent (Promega, item #G7572) • 9. SpectraMax i3x Multi-Mode Enzyme Labeling Instrument (Megaman Molecular Instruments, item #5024062) • C. Experimental method • 1. Resuspending the cells with a pipette. • 2. 0.4% Taipan blue staining solution and Toledo cells were mixed in equal proportion, and the cells were counted using an automatic cell counter. • 3. Toledo cells were diluted to a final concentration of 2000 cells per well and transferred to a 50 ml reagent reservoir. • 4. Diluted Toledo cells were added to a 384-well cell culture plate, 40 ul per well. • 5. The cells were shortly centrifuged and settled. • 6. The cells were incubated in a 37° C., 5% CO2 cell culture incubator. • 7. The substrate in the CellTiter-Glo Luminescent Cell Viability Detection Reagent was mixed with the solution. • 8. After six days, the 384-well cell culture plate was taken from the incubator and 20 ul of configured CellTiter-Glo reagent was added to each well. • 9. 384-well cell culture platewasmixed in an orbital shaker for 30 minutes. • 10. Signal of luminescence was detected with a SpectraMax i3x multi-mode enzyme labeling instrument.

PRMT1 = PRMT1 (Homo sapiens, UniProt Q99873); assay: PRMT1 enzyme activity test; type: biochemical; settings: 0.5 nM PRMT1, 3H-SAM, peptide
Sequence of PRMT1 (Q99873 whole entry): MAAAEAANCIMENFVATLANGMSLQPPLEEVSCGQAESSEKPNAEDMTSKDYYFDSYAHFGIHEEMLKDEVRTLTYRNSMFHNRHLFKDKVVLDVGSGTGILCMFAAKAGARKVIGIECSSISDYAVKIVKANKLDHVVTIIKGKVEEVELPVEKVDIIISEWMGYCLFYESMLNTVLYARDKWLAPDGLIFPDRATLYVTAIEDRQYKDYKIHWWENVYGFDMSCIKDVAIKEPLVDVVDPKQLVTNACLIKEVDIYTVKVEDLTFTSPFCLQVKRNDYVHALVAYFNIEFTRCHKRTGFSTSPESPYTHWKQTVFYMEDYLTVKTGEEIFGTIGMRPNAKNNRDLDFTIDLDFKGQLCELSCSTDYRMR
Procedure: PRMT1 enzyme activity test were performed in a buffer prepared on the same day 5 consisting of 10 mMTirs-HCl (pH=8.0), 0.01% Tween-20 and 1 mM DTT. The compounds were prepared to the highest inhibitor concentration ultimately required in the 100× reaction with 100% DMSO and then transferred to one well of a 384-well Echo plate (Echo-eligible 384-well polypropylene microplates 2.0, transparent, flat-bottomed) and sequentially diluted in the next well with a 3-fold dilution of 100% DMSO, and so on, with a total of 10 concentrations based on Precision. 100% DMSO was added to two empty wells to serve as control well without compound and control well without enzyme in the same 384-well Echo plate. 250 nL of compound was transferred from each well of the 384-well Echo plate to a 384-well assay plate (384-well polypropylene storage microplate) via the Echo 550 liquid processor. For wells with compounds and control well without compound, a mixture (15 uL) containing PRMT1 enzyme was added to the 384-well assay plate. For control wells without enzyme, the mixture containing the assay buffer (15 uL) was added instead. The compounds were allowed to incubate with PRMT1 for 15 minutes at room temperature, and then a mixture containing ^3H-SAM and peptide (10 uL) was added to start the reaction (final volume=25 uL). The final concentrations of the components were as follows: 0.5 nM for PRMT1, 0.25 uM for ^3H-SAM, 0.1 uM for the peptide, and 1% DMSO. After 120 min of incubation, the assay was terminated by the addition of non-radiolabeled SAM (5 uL) to a final concentration of 125 uM, which diluted 3H-SAM to a level at which its incorporation into the peptide substrate was no longer detected. 25 μL of the reaction solution from the 384-well assay plate was then transferred to a 384-well detection plate (Streptavidin FlashPlate HTS PLUS, high volume, 384 wells). The biotinylated peptide was allowed to bind to the surface of the antibiotic protein streptavidin for at least 60 minutes at room temperature. The Flashplate was then washed three times with 0.1% Tween-20 in a BioTek plate washer. Plates were read on a microplate counter (MicroBeta2) to measure the amount of ^3H-labeled peptide bound to the surface of the detection plate, measured in counts per minute (cpm).
The raw data were copied from the Reader and the inhibition values were calculated in Excel by Equation (1), Equation (1): Inh %=(CPMmax−CPMcmpd)/(CPMmax−CPMmin)*100, wherein the Max signal was obtained from the enzyme-substrate interaction and the Min signal was obtained from the substrate. IC50 values were obtained by fitting the data through equation (2) using XLFit add-in for Excel version […]. Equation (2): Y=Bottom+(Top-Bottom)/(1+((IC50/X)[…])), wherein, Y represents inhibition percentage and X represents compound concentration.

IC50 (PRMT1) [nM]	Structure (SMILES)	IC50 (Toledo cells) [nM]
< 50	CNCCN(C)Cc1ccc(C)nc1C1CCN(c2cccc(Cl)c2)CC1 [P073]	< 1000
< 50	CNCCN(C)Cc1ncccc1C1CCN(Cc2ccccc2)CC1 [P090]	< 1000
< 50	CNCCN(C)Cc1ncccc1C1CCN(c2cccc(OC)c2)CC1 [P169]	< 1000
50 to 500	CNCCN(C)Cc1ncccc1C1CCN(C(=O)c2ccccc2)CC1 [P203]	≥ 5000
< 50	CNCCN(C)Cc1ncccc1C1CCN(c2ccnc(C)n2)CC1 [P277]	< 1000
< 50	CNCCN(C)Cc1ncccc1C1CCN(c2nc(C)cc(N3CCCC3)n2)CC1 [P242]	< 1000
< 50	CNCCN(C)Cc1ncccc1C1CCN(c2ccc3c(c2)CCO3)CC1 [P163]	< 1000
< 50	CNCCN(C)Cc1ncccc1C1CCN(CC(C)C)CC1 [P113]	< 1000
< 50	CNCCN(C)Cc1ncccc1C1CCN(Cc2cccc(C)c2)CC1 [P077]	1000 to 5000
< 50	CNCCN(C)Cc1nc2ccccc2cc1C1CCN(c2cccc(C)c2)CC1 [P046]	1000 to 5000
≥ 500	CNCCN(C)Cc1ncccc1C1CCN(c2cccc(C(=O)O)c2)CC1 [P285]	≥ 5000
< 50	CNCCN(C)Cc1ncccc1C1CCN(c2ccnc(C)c2)CC1 [P193]	1000 to 5000
50 to 500	CNCCN(C)Cc1ccc(C)nc1C1CCN(c2cccc(NC)c2)CC1 [P162]	< 1000
< 50	CNCCN(C)Cc1ncccc1C1CCN(c2cc(C)ncn2)CC1 [P279]	1000 to 5000
< 50	CNCCN(C)Cc1ncccc1C1CCN(c2nc(C)nc3ccccc23)CC1 [P239]	1000 to 5000
< 50	CNCCN(C)Cc1ccc(C(N)=O)cc1C1CCN(c2cccc(C)c2)CC1 [P221]	< 1000
< 50	CNCCN(C)Cc1ccc(Cl)nc1C1CCN(c2cccc(C)c2)CC1 [P072]	< 1000

Continued, molecule first:

Structure (SMILES)	IC50 (PRMT1) [nM]	IC50 (Toledo cells) [nM]
CNCCN(C)Cc1ncccc1N1CCc2nc(OC)cc(OC)c2CC1 [P304]	< 50	1000 to 5000
CNCCN(C)Cc1ccc(C)nc1N1CCc2ccccc2CC1 [P110, N1-((2-(4,5-dihydro-1H-benzo[d]azepin-3(2H)-yl)-6-methylpyridin-3-yl)methyl)-N1,N2-dimethylethane-1,2-diamine]	< 50	< 1000
CNCCN(C)Cc1ncccc1N1CCC(Oc2ccc(F)cc2)CC1 [P178]	< 50	< 1000
CNCCN(C)Cc1ccc2[nH]ncc2c1C1CCN(c2cccc(C)c2)CC1 [P190, N^1,N^2-dimethyl-N^1-((4-(1-(m-tolyl)piperidin-4-yl)-1H-indazol-5-yl)methyl)ethane-1,2-dia mine]	< 50	< 1000
CNCCN(C)Cc1ccc(C(=O)NC)cc1C1CCN(c2cccc(C)c2)CC1 [P160]	< 50	< 1000
CNCCN(C)Cc1cc(F)ccc1[C@H]1CC[C@@H](c2cccc(C)c2)CC1 [P006]	< 50	1000 to 5000
CNCCN(C)Cc1ccc2[nH]nc(C)c2c1C1CCc2cc(F)c(F)cc2CC1 [P146, N1-((4-(2,3-difluoro-6,7,8,9-tetrahydro-5H-benzo[7]cyclopenten-7-yl)-3-methyl-1H-indazol-5-yl)methyl)-N1,N2-dimethylethane-1,2-diamine]	< 50	< 1000
CCC1(C(=O)NC)CCN(c2cccnc2CN(C)CCNC)CC1 [P300]	50 to 500	≥ 5000
CNCCN(C)Cc1ncccc1C1COc2ccccc2OC1 [P271]	< 50	1000 to 5000
CCOCC1CCN(c2cccnc2CN(C)CCNC)CC1 [P218]	< 50	1000 to 5000
CCN1CC2(CCC(c3cccnc3CN(C)CCNC)CC2)CC1=O (stereo not shown) [P222]	< 50	≥ 5000
CNCCN(C)Cc1ccc2ncccc2c1C1=CCN(c2cccc(C)c2)CC1 [P047]	< 50	1000 to 5000
CCOCC1(COCC)CCC(c2c(CN(C)CCNC)ccc3[nH]ncc23)CC1 [P266, N1-((4-(4,4-bis(ethoxymethyl)cyclohexyl)-1H-indazol-5-yl)methyl)-N1,N2-dimethylethane-1,2-diamine]	< 50	< 1000
CNCCN(C)Cc1ccc(F)cc1C1CCN(C(=O)Cc2ccccc2)CC1 [P087]	< 50	1000 to 5000
CNCCN(C)Cc1ncccc1N1CCCC1 [P197]	≥ 500	≥ 5000
CNCCN(C)Cc1ccccc1N1CCC(N(C)C)CC1 [P035]	50 to 500	≥ 5000
CNCCN(C)Cc1ncccc1N1CCC(COc2cnc(C)nc2)CC1 [P305]	< 50	< 1000
CNCCN(C)Cc1ccc2c(c1C1CCN(c3cccc(C)c3)CC1)CC(=O)N2 [P180]	< 50	< 1000

Structure (SMILES)	IC50 (PRMT1) [nM]	IC50 (Toledo cells) [nM]
CCOCC1CCCN(c2cccnc2CN(C)CCNC)C1 (stereo not shown) [P217]	50 to 500	1000 to 5000
CNCCN(C)Cc1ncccc1N1CCC(CC(=O)OC)CC1 [P302]	< 50	1000 to 5000
CNCCN(C)Cc1nc(C)ccc1N1CCc2cc(F)c(F)cc2CC1 [P093]	< 50	< 1000
CNCCN(C)Cc1ncccc1N1CCc2nc(N(C)C)nc(C)c2CC1 [P272]	50 to 500	1000 to 5000
CNCCN(C)Cc1ncccc1N1CCC(Oc2cccnc2)CC1 [P269]	< 50	1000 to 5000
CCC1CCN(c2ccccc2CN(C)CCNC)CC1 [P031]	< 50	1000 to 5000
CNCCN(C)Cc1ccc2[nH]c(C)nc2c1C1CCN(c2cccc(C)c2)CC1 [P176]	< 50	< 1000
CNCCN(C)Cc1ccc(F)cc1N1CCCN(c2ccccc2)CC1 [P030]	< 50	≥ 5000
CNCCN(C)Cc1ncccc1N1CCc2ccc(NC(C)=O)cc2CC1 [P270]	< 50	1000 to 5000
CNCCN(C)Cc1ncccc1N1CCC(N2CCC(C(=O)NC)CC2)CC1 [P275]	≥ 500	≥ 5000
CNCCN(C)Cc1ccc(CC(=O)NC)cc1C1CCN(c2cccc(C)c2)CC1 [P140]	< 50	< 1000
CNCCN(C)Cc1ncccc1N1CCC(=CC(=O)OC)CC1 [P303]	< 50	1000 to 5000
CNCCN(C)Cc1ncccc1N1CCC(Oc2ccccn2)CC1 [P268]	< 50	1000 to 5000
CNCCN(C)Cc1ccc(F)cc1C1CCc2nc3ccccc3nc2CC1 [P132]	< 50	< 1000
CNCCN(C)Cc1cc(F)c2[nH]ncc2c1C1CCN(c2cccc(C)c2)CC1 [P183]	< 50	< 1000
CNCCN(C)Cc1ncccc1N1CCCCCC1 [P145]	< 50	1000 to 5000
CNCCN(C)Cc1ncccc1N1CC2CC(C1)c1ccccc12 [P119]	≥ 500	1000 to 5000
CNCCN(C)Cc1ncccc1N1CC[C@H](OC)[C@H](OC)CC1 [P281]	50 to 500	≥ 5000
